From US6924279B2, “Crystalline 1-methylcarbapenem derivatives” (Sankyo Company, Limited, priority 1999, dated 2005)
Where two headings read alike, the source gives them in different places.

Experiments:
[1] = Stability test in desiccator at 60° C. in which silica gel was placed (HPLC remaining amount); assay type: physicochemical; conditions: desiccator at 60° C. with silica gel
Procedure: (§1) The crystalline compounds obtained in Example 1, 2, 4 and 5 were kept for about 2 months in a desiccator at 40° C. and 75% relative humidity and in a desiccator at 60° C. in which silica gel was placed, respectively. The non-crystalline powdered compound (lyophilized product) obtained according to the procedure described in U.S. Pat. No. 6,090,802 Example 72 and in Japanese Patent Application Publication No. Hei-11-071277, which is a reference sample, was kept under the same conditions described above. The remaining amount of the crystalline compounds and the non-crystalline powdered compound were determined after 7, 20, 21, 28, and 56 days by high pressure liquid chromatography on a L-Column ODS (4.6 mm Φ×150 mm, (trade mark) manufactured by Kagakuhinn kennsa kyoukai) eluting with 20 mM KH2PO4 (pH 7.0): CH3CN=96:4 at 1.0 ml/minute at 60° C. using an ultraviolet wave length of 300 nm. The remaining percentages of these compounds were calculated from the remaining amount of them and show in Tables 1-4.

K. pneumoniae 846 = assay: Antibiotic activity test, agar-plate dilution method; assay type: cell-based, Klebisella pneumoniae
Procedure: (§2) The MIC (μg/ml), the lowest concentration of antibiotic which inhibits growth of the test bacterial strain, was determined by the agar-plate dilution method. The crystalline compounds obtained in Example 1, 2, 4 and 5 of this invention were evaluated against various bacterial strains by determining the MIC of each compound with respect to each strain.

[2] = Stability test in desiccator at 40° C. and 75% relative humidity (HPLC remaining amount); assay type: physicochemical
Procedure: as §1

E. coli 609 = assay: Antibiotic activity test, agar-plate dilution method; assay type: cell-based, Escherichia coli
Procedure: as §2

[3] = system: Pseudomonas aeruginosa 1001; assay: as above; assay type: cell-based
Procedure: as §2

Enterobacter cloacae 963 = assay: as above; assay type: cell-based
Procedure: as §2

Serratia marcescens 1184 = assay: as above; assay type: cell-based
Procedure: as §2

Escherichia coli NIHJ = assay: as above; assay type: cell-based
Procedure: as §2

[4] = system: Klebisella pneumoniae 806; assay: as above; assay type: cell-based
Procedure: as §2

[5] = system: Staphylococcus aureus 209P; assay: as above; assay type: cell-based
Procedure: as §2

S. aureus 535 (MRSA) = assay: as above; assay type: cell-based, Staphylococcus aureus
Procedure: as §2

Compound | Remaining percentage of compound ([1]; After 21 days) [%] | Remaining percentage of compound ([1]; After 56 days) [%] | Antibiotic activity (MIC) (K. pneumoniae 846) | Remaining percentage of compound ([2]; After 20 days) [%] | Remaining percentage of compound ([2]; After 56 days) [%] | Antibiotic activity (MIC) (E. coli 609) | Antibiotic activity (MIC) [3] [µg/mL] | Antibiotic activity (MIC) (Enterobacter cloacae 963) [µg/mL] | Antibiotic activity (MIC) (Serratia marcescens 1184) | Antibiotic activity (MIC) (Escherichia coli NIHJ) | Antibiotic activity (MIC) [4] | Antibiotic activity (MIC) [5] | Antibiotic activity (MIC) (S. aureus 535 (MRSA)) [µg/mL] | also measured
CCO.C[C@@H](O)[C@H]1C(=O)N2C(C(=O)O)=C(S[C@H]3C[C@@H](C(=O)N4CC[C@H](NC(=O)CNC(=N)N)C4)N(C)C3)[C@H](C)[C@H]12.O=C(O)O [Example 1, (1R,5S,6S)-2-[(2S,4S)-2-[(3S)-3-(2-Guanidinoacetylamino)pyrrolidin-1-ylcarbonyl]-1-methylpyrrolidin-4-ylthio]-6-[(1R)-1-hydroxyethyl]-1-methyl-1-carbapen-2-em-3-carboxylic acid.1/2 Carbonate.1/2 Ethanol] | 98.5 | 96.4 | ≦0.01 μg/ml | 98.5 | 92.9 | 0.02 µg/mL | 0.2 | 0.05 | ≦0.01 μg/ml | ≦0.01 μg/ml | ≦0.01 μg/ml | ≦0.01 μg/ml | 1.5 | –
CCO.C[C@@H](O)[C@H]1C(=O)N2C(C(=O)O)=C(S[C@H]3C[C@@H](C(=O)N4CC[C@H](NC(=O)CNC(=N)N)C4)N(C)C3)[C@H](C)[C@H]12.C[C@@H](O)[C@H]1C(=O)N2C(C(=O)O)=C(S[C@H]3C[C@@H](C(=O)N4CC[C@H](NC(=O)CNC(=N)N)C4)N(C)C3)[C@H](C)[C@H]12 [Example 2, (1R,5S,6S)-2-[(2S,4S)-2-[(3S)-3-(2-Guanidinoacetylamino)pyrrolidin-1-ylcarbonyl]-1-methylpyrrolidin-4-ylthio]-6-[(1R)-1-hydroxyethyl]-1-methyl-1-carbapen-2-em-3-carboxylic Acid.1/2 Ethanol] | 100.1 | 96.8 | ≦0.01 μg/ml | 95.8 | 87.3 | ≦0.01 μg/ml | 0.2 | 0.05 | ≦0.01 μg/ml | ≦0.01 μg/ml | ≦0.01 μg/ml | ≦0.01 μg/ml | 1.5 | –
C[C@@H](O)[C@H]1C(=O)N2C(C(=O)O)=C(S[C@H]3C[C@@H](C(=O)N4CC[C@H](NC(=O)CNC(=N)N)C4)N(C)C3)[C@H](C)[C@H]12 [Example 4, (1R,5S,6S)-2-[(2S,4S)-2-[(3S)-3-(2-Guanidinoacetylamino)pyrrolidin-1-ylcarbonyl]-1-methylpyrrolidin-4-ylthio]-6-[(1R)-1-hydroxyethyl]-1-methyl-1-carbapen-2-em-3-carboxylic Acid] | 100.4 | 100.9 | ≦0.01 μg/ml | 99.4 | 94.3 | 0.02 µg/mL | 0.2 | 0.05 | ≦0.01 μg/ml | ≦0.01 μg/ml | ≦0.01 μg/ml | ≦0.01 μg/ml | 1.5 | –
C[C@@H](O)[C@H]1C(=O)N2C(C(=O)O)=C(S[C@H]3C[C@@H](C(=O)N4CC[C@H](NC(=O)CNC(=N)N)C4)N(C)C3)[C@H](C)[C@H]12 [Example 5, (1R,5S,6S)-2-[(2S,4S)-2-[(3S)-3-(2-Guanidinoacetylamino)pyrrolidin-1-ylcarbonyl]-1-methylpyrrolidin-4-ylthio]-6-[(1R)-1-hydroxyethyl]-1-methyl-1-carbapen-2-em-3-carboxylate.1/4 Ethanol.3/2 Hydrate] | – | – | – | – | – | – | – | – | – | – | – | – | – | Remaining percentage of compound ([1]; After 7 days): 98.3%; Remaining percentage of compound ([1]; After 28 days): 97.0%; Remaining percentage of compound ([1]; After 56 days, Hydrate): 97.6%; Remaining percentage of compound ([2]; After 7 days): 98.9%; Remaining percentage of compound ([2]; After 28 days): 94.6%; Remaining percentage of compound ([2]; After 56 days, Hydrate): 83.2%; Antibiotic activity (MIC) (E. coli 609; Hydrate): ≦0.01 μg/ml; Antibiotic activity (MIC) ([3]; Hydrate): 0.39 µg/mL
